51 compounds from the PolyMetriX glass transition set can be followed below.

On to `*C(=O)c1ccc(Oc2ccc(-c3ccc(Oc4ccc(C(=O)c5ccc6nc(*)ccc6c5)cc4)cc3)cc2)cc1` (repeat unit), for which the glass transition temperature was 155.00 °C. `*C(=O)c1ccc(Oc2ccc(C(C)(C)c3ccc(Oc4ccc(*)s4)cc3)cc2)cc1` (repeat unit) registered a glass transition temperature of 151.00 °C. Then `*C(=O)c1ccc2c(c1)C(=O)N(c1ccc(Oc3ccc(C(=O)c4ccc5cc(C(=O)c6ccc(Oc7ccc(N8C(=O)c9ccc(*)cc9C8=O)cc7)cc6)ccc5c4)cc3)cc1)C2=O` (repeat unit), with 246.00 °C; and `*C(=O)c1ccc2c(c1)C(=O)N(c1ccc(Oc3ccc(C(C)(C)c4ccccc4)cc3)c(N3C(=O)c4ccc(*)cc4C3=O)c1)C2=O` (repeat unit), with 267.00 °C; and `*Oc1cc(OC(=O)c2ccc(Oc3ccc(C4(c5ccc(Oc6ccc(C(*)=O)cc6)cc5)CCC(C(C)(C)C)CC4)cc3)cc2)ccc1C12CC3CC(CC(C3)C1)C2` (repeat unit), with 180.00 °C. Consider `*Oc1ccc(/C=C/C(=O)c2ccc(Oc3ccc(C(C)(C)c4ccc(*)cc4)cc3)cc2)cc1` (repeat unit), for which the glass transition temperature was found to be 152.00 °C. `*Oc1ccc(/C=C/C(=O)c2ccc(Oc3ccc(C(C)(c4ccccc4)c4ccc(*)cc4)cc3)cc2)cc1` (repeat unit) gave a glass transition temperature of 167.00 °C. Then `*Oc1ccc(/C=N/N=C/c2ccc(Oc3ccc(C(C)(C)c4ccc(*)cc4)cc3)cc2)cc1` (repeat unit), with 163.00 °C; and `*Oc1ccc(C(C)(C)c2ccc(C(C)(C)c3ccc(Oc4ccc(C(=O)Nc5ccc(NC(=O)c6ccc(*)cc6)cc5)cc4)cc3)cc2)cc1` (repeat unit), with 163.00 °C. Regarding `*Oc1ccc(C(C)(C)c2ccc(Oc3ccc(C(=O)C(=O)c4ccc(*)cc4)cc3)cc2)cc1` (repeat unit), the glass transition temperature was determined as 152.00 °C. `*Oc1ccc(C(C)(C)c2ccc(Oc3ccc(C(=O)Nc4ccc(NC(=O)c5ccc(*)cc5)cc4)cc3)cc2)cc1` (repeat unit): the glass transition temperature was 230.00 °C. Next, `*Oc1ccc(C(C)(C)c2ccc(Oc3ccc(C(=O)c4ccc(C(c5ccc(C(=O)c6ccc(*)cc6)cc5)(C(F)(F)F)C(F)(F)F)cc4)cc3)cc2)cc1` (repeat unit): 181.00 °C; `*Oc1ccc(C(C)(C)c2ccc(Oc3ccc(C(=O)c4cccc(C(=O)c5ccc(*)cc5)c4)cc3)cc2)cc1` (repeat unit): 153.00 °C; `*Oc1ccc(C(C)(C)c2ccc(Oc3ccc(C(=O)c4cccc5cccc(C(=O)c6ccc(*)cc6)c45)cc3)cc2)cc1` (repeat unit): 210.50 °C. Compound `*Oc1ccc(C(C)(C)c2ccc(Oc3ccc(C(=O)c4ccccc4-c4ccccc4C(=O)c4ccc(*)cc4)cc3)cc2)cc1` (repeat unit) yielded a glass transition temperature of 172.00 °C. Compound `*Oc1ccc(C(C)(C)c2cccc(C(C)(C)c3ccc(Oc4ccc(C(=O)Nc5ccc(Cc6ccc(NC(=O)c7ccc(*)cc7)cc6)cc5)cc4)cc3)c2)cc1` (repeat unit) yielded a glass transition temperature of 149.00 °C. Next, `*Oc1ccc(C(C)(c2ccccc2)c2ccc(Oc3ccc(C(=O)C(=O)c4ccc(*)cc4)cc3)cc2)cc1` (repeat unit): 177.00 °C; `*Oc1ccc(C2(C)CCC(C(C)(C)c3ccc(Oc4ccc(C(=O)c5ccc(*)cc5)cc4)cc3)CC2)cc1` (repeat unit): 200.00 °C. `*Oc1ccc(C2(c3ccc(OC(=O)c4ccc(Oc5ccc(C6(c7ccc(Oc8ccc(C(*)=O)cc8)cc7)CCC(C(C)(C)C)CC6)cc5)cc4)cc3)CC3CC2C2CCCC32)cc1` (repeat unit) returned a glass transition temperature of 181.00 °C. Then `*Oc1ccc(C2(c3ccc(OC(=O)c4ccc(Oc5ccc(C6(c7ccc(Oc8ccc(C(*)=O)cc8)cc7)CCC(C(C)(C)C)CC6)cc5)cc4)cc3)CCCCCCCCCCC2)cc1` (repeat unit), with 181.00 °C; and `*Oc1ccc(C2(c3ccc(Oc4ccc(/C=N/N=C/c5ccc(*)cc5)cc4)cc3)c3ccccc3-c3ccccc32)cc1` (repeat unit), with 227.00 °C; and `*Oc1ccc(C2(c3ccc(Oc4ccc(C(=O)c5cccc(C(=O)c6ccc(*)cc6)c5)cc4)c(C)c3)CCC3CCCCC3C2)cc1C` (repeat unit), with 185.00 °C.

`*Oc1ccc(C2(c3ccc(Oc4ccc(C(=O)c5cccc(C(=O)c6ccc(*)cc6)c5)cc4)c(C)c3)c3ccccc3-c3ccccc32)cc1C` (repeat unit) showed a glass transition temperature of 217.00 °C. Then `*Oc1ccc(NC(=O)c2ccc(Oc3ccc(C(C)(C)c4ccc(C(C)(C)c5ccc(Oc6ccc(C(=O)Nc7ccc(Oc8ccc(C(c9ccc(*)cc9)(C(F)(F)F)C(F)(F)F)cc8)cc7)cc6)cc5)cc4)cc3)cc2)cc1` (repeat unit), with 169.00 °C; and `*Oc1ccc(S(=O)(=O)c2ccc(-c3ccc(*)cc3)cc2)cc1` (repeat unit), with 269.00 °C. `*Oc1ccc(S(=O)(=O)c2ccc(Oc3ccc(/C=N/c4ccc(Oc5ccc(/N=C/c6ccc(*)cc6)cc5)cc4)cc3)cc2)cc1` (repeat unit) had a glass transition temperature of 162.00 °C. Next, `*Oc1ccc(S(=O)(=O)c2cccc3c(S(=O)(=O)c4ccc(Oc5ccc(-c6ccc(*)cc6)cc5)cc4)cccc23)cc1` (repeat unit): 248.00 °C; `*Oc1cccc(NC(=O)c2ccc(Oc3ccc(C(C)(C)c4ccc(C(C)(C)c5ccc(Oc6ccc(C(=O)Nc7ccc(*)cc7)cc6)cc5)cc4)cc3)cc2)c1` (repeat unit): 168.00 °C. Then `*c1ccc(-c2nc3cc(C(=O)c4ccc5nc(-c6ccccc6)c(-c6ccc(N7C(=O)C8OC9C(=O)N(*)C(=O)C9C8C7=O)cc6)nc5c4)ccc3nc2-c2ccccc2)cc1` (repeat unit), with 255.00 °C. Consider `*c1ccc(Oc2ccc(-c3ccc(Oc4ccc(-c5cnc6cc(-c7ccc8nc(*)cnc8c7)ccc6n5)cc4)cc3)cc2)cc1` (repeat unit), for which the glass transition temperature came out at 213.00 °C. Next, `*c1ccc(Oc2ccc(-c3ccc(Oc4ccc(N5C(=O)CC(=O)N(*)C5=S)cc4)cc3)cc2)cc1` (repeat unit): 158.50 °C.

In the case of `*c1ccc(Oc2ccc(-c3cccc(-c4ccc(Oc5ccc(-c6c7c(c(*)c8ccccc68)C(=O)N(c6ccccc6)C7=O)cc5)c(C(F)(F)F)c4)c3)cc2C(F)(F)F)cc1` (repeat unit), the glass transition temperature stood at 271.00 °C.

On to `*c1ccc(Oc2ccc(-c3cnc4cc5nc(*)cnc5cc4n3)cc2)cc1` (repeat unit), for which the glass transition temperature is 353.00 °C. Next, `*c1ccc(Oc2ccc(-c3cnc4cc5ncc(*)nc5cc4n3)cc2)cc1` (repeat unit): 353.00 °C; `*c1ccc(Oc2ccc(-c3cnc4ccc(-c5ccc6ncc(*)nc6c5)cc4n3)cc2)cc1` (repeat unit): 305.00 °C; `*c1ccc(Oc2ccc(-n3c(=O)c4c(Oc5ccc(OC)cc5)c5c(=O)n(*)c(=O)c5c(Oc5ccc(OC)cc5)c4c3=O)cc2)cc1` (repeat unit): 303.50 °C.

With `*c1ccc(Oc2ccc(-n3c(=O)c4c(Oc5ccc(OCCCC)cc5)c5c(=O)n(*)c(=O)c5c(Oc5ccc(OCCCC)cc5)c4c3=O)cc2)cc1` (repeat unit), the glass transition temperature came out at 269.50 °C. In turn, `*c1ccc(Oc2ccc(-n3c(=O)c4cc5c(=O)n(-c6ncc(*)s6)c(=O)c5cc4c3=O)cc2)cc1` (repeat unit) yielded a glass transition temperature of 328.80 °C. Compound `*c1ccc(Oc2ccc(-n3nc(-c4ccccc4)cc3-c3cccc(-c4cc(-c5ccccc5)nn4*)c3)cc2)cc1` (repeat unit) displayed a glass transition temperature of 232.00 °C. Then `*c1ccc(Oc2ccc(C(=O)c3ccc(Oc4ccc(-c5c6c(c(*)c7ccccc57)C(=O)N(C)C6=O)cc4)cc3)cc2)cc1` (repeat unit), with 283.00 °C; and `*c1ccc(Oc2ccc(C(=O)c3ccc(Oc4ccc(-c5c6c(c(*)c7ccccc57)C(=O)N(CCCCCCCCCCCC)C6=O)cc4)cc3)cc2)cc1` (repeat unit), with 147.00 °C. Regarding `*c1ccc(Oc2ccc(C(=O)c3ccc(Oc4ccc(C5(*)OC(=O)c6ccccc65)cc4)cc3)cc2)cc1` (repeat unit), the glass transition temperature came to 218.00 °C. Then `*c1ccc(Oc2ccc(C(C)(C)c3ccc(Oc4ccc(-c5cccc(*)n5)cc4C(F)(F)F)cc3)cc2)c(C(F)(F)F)c1` (repeat unit), with 125.00 °C; and `*c1ccc(Oc2ccc(C(C)(C)c3ccc(Oc4ccc(-c5nc(-c6ccccn6)nnc5*)cc4)cc3)cc2)cc1` (repeat unit), with 220.00 °C; and `*c1ccc(Oc2ccc(C(C)(C)c3ccc(Oc4ccc(-c5ncc(*)o5)cc4C(F)(F)F)cc3)cc2)c(C(F)(F)F)c1` (repeat unit), with 185.00 °C. Next, `*c1ccc(Oc2ccc(C(C)(C)c3ccc(Oc4ccc(-c5nnc(*)c6c(-c7ccc(F)cc7)c(-c7ccc(F)cc7)c(-c7ccc(F)cc7)c(-c7ccc(F)cc7)c56)cc4)cc3)cc2)cc1` (repeat unit): 282.00 °C; `*c1ccc(Oc2ccc(C(c3ccc(Oc4ccc(-c5cccc(*)n5)cc4C(F)(F)F)cc3)(C(F)(F)F)C(F)(F)F)cc2)c(C(F)(F)F)c1` (repeat unit): 153.00 °C; `*c1ccc(Oc2ccc(C(c3ccc(Oc4ccc(-c5nc(*)nc(-c6ccccc6)n5)cc4)cc3)(C(F)(F)F)C(F)(F)F)cc2)cc1` (repeat unit): 241.00 °C. With `*c1ccc(Oc2ccc(P(=O)(c3ccccc3)c3ccc(Oc4ccc(-c5nc(-c6ccccc6)[nH]c5*)cc4)cc3)cc2)cc1` (repeat unit), the glass transition temperature was determined as 318.00 °C. In turn, `*c1ccc(Oc2ccc(S(=O)(=O)c3ccc(Oc4ccc(-c5nc6ccccc6n5-c5ccc(-n6c(*)nc7ccccc76)cc5)cc4)cc3)cc2)cc1` (repeat unit) yielded a glass transition temperature of 270.00 °C.

Compound `*c1nnc(-c2ccc(Oc3ccc(C(c4ccc(Oc5ccc(*)c6ccccc56)cc4)(C(F)(F)F)C(F)(F)F)cc3)c3ccccc23)o1` (repeat unit) yielded a glass transition temperature of 220.00 °C.
